Laboratory results from publication PMC7450492 (Molecular cancer therapeutics, 2020).
≈ marks a conversion by molar mass, not a printed value. Entries after “also recorded” stand apart in the source; their conditions may differ.

Columns and labels:
[1] = test system: LLC tumors; experiment: LLC tumors in Syk^MC-KO mice; type: in vivo, mouse
[2] = test system: LLC cells; experiment: viability of LLC cells; type: cell-based, mouse
[3] = test system: B16-OVA tumor; experiment: B16-OVA tumor in C57BL/6 mice; type: in vivo, mouse
[4] = test system: LLC tumor; experiment: LLC tumor with macrophage depletion by anti-CSF1R; type: in vivo, mouse; conditions: macrophage depleted mice
[5] = test system: LLC tumors; experiment: LLC syngeneic tumor in WT mice; type: in vivo; conditions: for infiltration of CD8+ T cells in LLC tumors: treated LLC tumors
[6] = test system: T cells; experiment: T cell proliferation ex vivo; type: cell-based, mouse
[7] = target: Syk (Homo sapiens, UniProt P43405); experiment: cell free enzymatic inhibition of Syk; type: biochemical; conditions: read-out: Syk inhibitory activity IC50; cell free system
[8] = test system: PI3K isoforms p110α, p110β, p110γ and p110δ; experiment: cell free enzymatic inhibition of PI3K isoforms; type: biochemical; conditions: in vitro
[9] = test system: p-AKT; experiment: p-AKT blockade; type: cell-based; conditions: 10 µM conc.
[10] = test system: immunosuppressive gene expression in MΦ; experiment: immunosuppressive MΦ polarization, gene expression; type: cell-based; conditions: very low dose, compared to IPI-549 or R488 alone
[11] = PK in mice, i.v. and oral; type: in vivo, mouse; conditions: prototype formulation, preliminary
[12] = solubility in water; type: physicochemical
[13] = metabolic stability; type: in vitro ADME
[14] = test system: CT26 tumor; experiment: CT26 tumor in NSG or Balb/c mice; type: in vivo, mouse

Row | SMILES | LLC tumor growth in Syk^MC-KO mice [1] | viability of LLC cells [2] | OVA specific CD8+ T cells in tumor draining lymph nodes ([3]; B16-OVA, H-2K^b SIINFEKL tetramers) | B16-OVA tumor growth ([3]; C57BL/6 mice, R788 40 mg/kg, anti-PDL1 200µg, 40 mg/kg) | LLC tumor growth, combination with anti-CSF1R (CD115) antibody [4] | tumor growth and metastasis ([5]; LLC, WT mice, 40 mg/kg R788 orally, vs vehicle) | infiltration of CD8+ T cells in LLC tumors [5] | T cell proliferation [6] | IC50 [7] [nM] | PI3K inhibitory potency [8] | p-AKT blockade [9] | immunosuppressive gene expression [10] | half-life ([11]; 5mg/kg IV and 15 mg/kg PO) | bioavailability ([11]; oral 15 mg/kg PO vs 5mg/kg IV) | solubility in water [12] [µM] | toxicity in tumor-bearing mice ([5]; 10 mg/kg dose) | LLC tumor growth and survival ([5]; 10 mg/kg oral, WT mice, compared to IPI549 and R788 at similar doses) | CLint [13] [µL/min/mg protein] | CT26 tumor growth in Balb/c mice ([14]; Balb/c mice) | CT26 tumor growth in NSG mice ([14]; NSG mice)
1 | C[C@H](NC(=O)c1c(N)nn2cccnc12)c1cc2cccc(C#Cc3cnn(C)c3)c2c(=O)n1-c1ccccc1 [IPI549] | significantly decreased | – | – | – | – | – | – | – | – | – | – | – | – | – | – | – | – | – | – | –
2 | COc1cc(Nc2ncc(F)c(Nc3ccc4c(n3)N(COP(=O)(O)O)C(=O)C(C)(C)O4)n2)cc(OC)c1OC [R788, Fostamatinib] | didn’t show additive reduction | no effect | increased | significantly blocked tumor growth; also recorded: substantially inhibited | no additive effects | significantly suppressed | increased infiltration | no effect | – | – | – | – | – | – | – | – | – | – | – | –
3 | Cc1nn(-c2ccnc(Nc3ccc(-c4csc5c(=O)cc(N6CCOCC6)oc45)cc3)n2)cc1CN1CCC1 [SRX3207] | significantly decreased | – | – | – | no additive effects | – | increased infiltration | didn’t affect | 30 | acceptable PI3K inhibitory properties | able to block | potently blocks | about 5 hours | around 2% | 43 (≈ 23.9 µg/mL) | without toxicity | blocked tumor growth and increased survival effectively | 74 | blocked tumor growth | didn’t block
